Reference: the NIST ThermoML archive (doi:10.1021/je800727f)

Settings: for viscosity / mass density: 101.33 kPa, Liquid; for viscosity: dissipative quartz crystal microbalance from KSV (QCMZ500)

C[n+]1ccn(CCO)c1.F[B-](F)(F)F [1-(2-hydroxyethyl)-3-methylimidazolium tetrafluoroborate]
Settings	mass density [kg/m3]	surface tension liquid-gas [mN/m]	viscosity [mPa·s]
293.15 K	–	–	1554
298.15 K	1308	–	974
303.15 K	1304.7	–	–
308.15 K	1301.4	–	477
313.15 K	1296.1	–	–
318.15 K	1294.7	–	257
323.15 K	1291.5	–	–
328.15 K	1288.3	–	156
572 K	–	64.7	–
577.78 K	–	64.6	–
587.55 K	–	64	–
597.81 K	–	63.5	–
607.58 K	–	62.7	–
626.51 K	–	61.7	–
645.35 K	–	59.9	–
665.48 K	–	59.1	–
684.42 K	–	57.5	–
703.95 K	–	56.4	–
725.28 K	–	55.4	–
743.71 K	–	53.6	–

CCCCCCCC[n+]1ccn(C)c1.F[B-](F)(F)F [1-methyl-3-octylimidazolium tetrafluoroborate]
Settings	mass density [kg/m3]	surface tension liquid-gas [mN/m]	viscosity [mPa·s]
293.15 K	–	–	413
298.15 K	1100.5	–	325
308.15 K	1093.7	–	205
318.15 K	1087.1	–	129
328.15 K	1080.5	–	86
570.95 K	–	32.7	–
586.35 K	–	32.4	–
606.62 K	–	31.3	–
625.26 K	–	30.2	–
646.29 K	–	28.1	–
665.98 K	–	27.7	–
685.41 K	–	27.2	–
704.75 K	–	25.3	–
724.78 K	–	24.5	–
743.71 K	–	23.7	–
